# Assay results reported in patent US5349070A, “Salicylic acid-maltol conjugates” (priority 1993, dated 1994).
# What was measured:
# [1] = background statement; cited from earlier work
# [2] = test system: Malondialdehyde (MDA) Generation in Mouse Liver Homogenate; test: Inhibition of malondialdehyde (MDA) generation (antioxidant activity), in vitro; format: biochemical, mouse (male ICR)
# Description: Animal: male ICR mouse weighing 20-25 g
# 1. Maltol (10% DMF saline)
# 2. Aspirin (10% DMF saline).
# TBA reagents: Thiobarbituric acid (0.3%) and SDS (0.4%) were dissolved in 7.5% acetate buffer (pH 4.0)
# Antioxidant activities were determined following the method of Okawa et al. (Biochemistry (Japan) 1977), 49(8), 829). Mouse livers were homogenized with ten volumes of saline. To 10 ml of homogenate was added 10 ml of the sample solution, and the mixture was incubated at 37° C. for 3 hrs. Then 3.6 ml of TBA reagents were added to the mixture and the resulting mixture was heated at 98° C. for 1 hr. After the temperature was reduced to 24° C., the reaction mixture was extracted with 2 ml of butanol and the butanol phase was separated by centrifugation. The absorbance at 532 nm of the butanol phase was measured.
# [3] = Gastric ulceration experiment; format: in vivo, rat (male Sprague Dawley); conditions: for Ulcer Index: mean ± S.E.; for gastric ulceration: compound A versus aspirin at four times lower dose
# Description: Animal: Male Sprague Dawley rats weighing 160-210 g (6 rats as a group).
# Reference: Aspirin (200 mg/kg in 1% CMC).
# (§1) Medication: Oral administration.
# Rats were deprived of food but allowed free access to water for 24 hrs (water was removed 2 hrs before experiments). Samples suspended in 1% CMC solution […]. The stomachs were then inflated by injecting 10 ml of 2% formalin through the esophageal orifice and immersed in 2% formalin for 10 min. Subsequently, the stomachs were incised along the greater curvature and the length of each leison in the glandular portion was measured. The sum of the lengths (mm) of all lesions for each rat was used as the ulcer index.
# Bleeding time = format: in vivo; conditions: for Bleeding Time: in s (unit assumed); for percent increment of bleeding time: P < 0.05
# Description: To the experimental groups, equivalent doses of compound A and aspirin were administered separately for 10 days.
# Acute toxicity test = format: in vivo; conditions: oral, mouse
# [4] = test system: Carrageenin-induced edema; test: Antiinflammatory activity by Carrageenin-induced edema test; format: in vivo, rat (male Sprague Dawley); conditions: for % Increment of Edema: mean ± S.E.
# Description: Animal: Male Sprague Dawley rats weighing approx. 170 g (5 rats as a group). […]
# as §1
# The inhibitions of Carrageenin-induced edema by compound A and aspirin was measured according to Winster et al. (Winter, C. A., Risley, E. A. and Nuss, G. W. (1963), J: Pharmaco. Exptl. Therap., 141, 369). Samples were administered orally at 6 hrs and 30 min before Carrageenin injection. Edema was induced with subcutaneous injection of 0.05 ml of 1% Carrageenin in saline solution in a hind paw of rat. Then, the volume of edema was measured at time intervals.
# [5] = General activities and side effects stated in the description; conditions: concluding statement
# platelets = test: Antithrombotic activity (thrombin-induced platelet aggregation); format: cell-based, rat (male Sprague Dawley); conditions: 1×10^-3 M
# Description: Animal: Male Sprague Dawley rate weighing 180-250 g.
# Sample: Compound A (1×10^-3 M) in 5% DMF solution.
# Rats were anaesthetized with ether and 9 volumes of blood were collected by heart puncture with 1 volume of 3.12% sodium citrate. Combined blood samples were centrifuged at 1,200 rpm for 20 min at 4° C. to obtain platelet-rich plasma. Following centrifugation at 3,000 rpm for 10 min at 4° C., the resulting precipitates (platelets) were resuspended in 0.01M phosphate-buffered saline (pH 7.4). To 1 ml of this solution was added 0.1 ml of the sample solution. After 30 min incubation at 37° C., 10 units of thrombin was added and the reaction mixture was incubated for 1 hr.
# BSA = test: Protein stabilizing activity (heat denaturation of BSA); format: biochemical; conditions: 1×10^-3 M in 5% DMF; data not shown
# Description: Sample: Compound A (1×10^-3 M in 5% DMF solution
# The protein stabilizng activity of the sample was analyzed as described by Mizushima (Mizushima, Y. (1965), Lancet, 1, 169). Briefly, 2 ml of 0.75% BSA in 0.1M phosphate-buffered saline (pH 5.3) was mixed with 1 ml of appropriately diluted test sample solution. After standing at room temperature for 15 min, the reaction mixture was incubated at 66.5°C. and 0° C. for 3 min and 15 min, respectively. The degree of heat denaturation of BSA was estimated by the turbidity of colloidal precipitate, whose absorbance at 570 nm was measured.
# Typhoid vaccine pyrogen = test: Antipyretic activity (typhoid vaccine pyrogen, rectal temperature); format: in vivo, mouse (male ICR); conditions: oral, mouse, FIG. 3; compound A 160, 500 mg/kg, aspirin 100 mg/kg
# Description: Animal: Male ICR mouse weighing 17-21 g (5 mice as a group).
# Sample: Compound A (160 mg/kg, 500 mg/kg in 1% CMC).
# Reference: Aspirin (100 mg/kg in 1% CMC).
# Pyrogen: Typhoid vaccine (0.1 ml/mouse, i.p.).
# Antipyretic activities were measured according to Winter et al. with some modifications (Winter, C. A. et al. (1963), J. Pharmacol Exptl. Therap., 141, […]). Rectal temperature was measured using digitalized thermometer inserted 3 cm deep at one hr intervals. Typhoid vaccine was injected to mouse i.p. at zero time. After 2 hrs, aspirin and sample (compound in Example 1) were orally given to mouse.
# [6] = final concentration 2.5 × 10^-3 M
# [7] = final concentration 2.5 × 10^-4 M
# [8] = final concentration 6.3 × 10^-5 M
# [9] = final concentration 1.3 × 10^-5 M
smiles,measurement,setting,value
"CC(=O)Oc1ccccc1C(=O)O [Aspirin, Acetylsalicylic acid, reference compound]",gastric ulceration induced by aspirin,[1],induces gastric ulceration
same,pharmacological activities of aspirin,[1],"antipyretic, antianalgesic, antioxidant and antithromobotic activities"
same,% Inhibition of Malondialdehyde (MDA) Generation,[2]; [6],8.4 ± 4.2%
same,% Inhibition of Malondialdehyde (MDA) Generation,[2]; [7],0.8 ± 0.4%
same,% Inhibition of Malondialdehyde (MDA) Generation,[2]; [8],4.6 ± 2.3%
same,number of rats that exhibited gastric ulcer,[3]; 200 mg/kg P.O.,5/5
same,Ulcer Index,[3]; 200 mg/kg P.O.,29.3 ± 6.15 mm
same,gastric ulceration,[3],caused ulceration
same,Bleeding Time,"Bleeding time; 15 mg/kg P.O., day 2",353.5 ± 74.7
same,Bleeding Time,"Bleeding time; 15 mg/kg P.O., day 4",372.7 ± 50.1
same,Bleeding Time,"Bleeding time; 15 mg/kg P.O., day 6",516.6 ± 119.4
same,Bleeding Time,"Bleeding time; 15 mg/kg P.O., day 8",493.6 ± 86.6
same,Bleeding Time,"Bleeding time; 15 mg/kg P.O., day 10",441.9 ± 46.2
"CC(=O)Oc1ccccc1C(=O)Oc1c(C)occc1=O [Compound A, maltol-acetylsalicylate ester]",LD50,Acute toxicity test; in vivo,2140 mg/kg
same,toxicity,Acute toxicity test,little toxicity
same,% Increment of Edema,"[4]; 300 mg/kg P.O., 0.5 hr",46.5 ± 13.98%
same,% Increment of Edema,"[4]; 300 mg/kg P.O., 1.5 hr",51.2 ± 9.47%
same,% Increment of Edema,"[4]; 300 mg/kg P.O., 2.5 hr",56.1 ± 11.50%
same,% Increment of Edema,"[4]; 300 mg/kg P.O., 3.5 hr",69.4 ± 13.89%
same,% Increment of Edema,"[4]; 300 mg/kg P.O., 4.5 hr",81.9 ± 9.96%
same,% Increment of Edema,"[4]; 400 mg/kg P.O., 0.5 hr",20.3 ± 6.85%
same,% Increment of Edema,"[4]; 400 mg/kg P.O., 1.5 hr",33.8 ± 3.19%
same,% Increment of Edema,"[4]; 400 mg/kg P.O., 2.5 hr",50.2 ± 6.43%
same,% Increment of Edema,"[4]; 400 mg/kg P.O., 3.5 hr",58.4 ± 6.09%
same,% Increment of Edema,"[4]; 400 mg/kg P.O., 4.5 hr",66.2 ± 8.52%
same,anti-inflammatory effect,"[4]; doses of 300 and 450 mg/kg, oral",no anti-inflammatory effect
same,% Inhibition of Malondialdehyde (MDA) Generation,[2]; [9],4.3 ± 2.1%
same,% Inhibition of Malondialdehyde (MDA) Generation,[2]; [6],91.9 ± 4.1%
same,% Inhibition of Malondialdehyde (MDA) Generation,[2]; [7],58.9 ± 7.0%
same,% Inhibition of Malondialdehyde (MDA) Generation,[2]; [8],2.3 ± 1.1%
same,side effects,[5],little side effects
same,Ulcer Index,[3]; 100 mg/kg P.O.,0 mm
same,Ulcer Index,[3]; 200 mg/kg P.O.,0 mm
same,number of rats that exhibited gastric ulcer,[3]; 800 mg/kg P.O.,1/6
same,Ulcer Index,[3]; 800 mg/kg P.O.,0.7 ± 0.61 mm
same,gastric ulcer,[3]; at 5 times higher dose than aspirin,did not cause gastric ulcer
same,gastric ulceration,[3],did not cause gastric ulceration
same,antithrombotic activity,platelets,showed antithrombotic activity
same,platelet aggregation,"platelets; 10 units thrombin, naked eye, 1 hr",platelet aggregation was not observed
same,protein stabilizing activity,BSA,did not contain protein stabilizing activity
same,Bleeding Time,"Bleeding time; 15 mg/kg P.O., day 2",339.6 ± 53.9
same,Bleeding Time,"Bleeding time; 15 mg/kg P.O., day 4",396.9 ± 56.0
same,Bleeding Time,"Bleeding time; 15 mg/kg P.O., day 6",429.4 ± 50.6
same,Bleeding Time,"Bleeding time; 15 mg/kg P.O., day 8",518.3 ± 102.8
same,percent increment of bleeding time,"Bleeding time; 15 mg/kg P.O., day 10",50%
same,Bleeding Time,"Bleeding time; 15 mg/kg P.O., day 10",472.1 ± 57.4
same,percent increment of bleeding time,"Bleeding time; 45 mg/kg P.O., day 10",48%
same,Bleeding Time,"Bleeding time; 45 mg/kg P.O., day 10",467.8 ± 55.9
same,prolongation of the bleeding time,Bleeding time; administered for 10 days,50%
same,antipyretic potency compared to aspirin,Typhoid vaccine pyrogen,five times lower than that of aspirin
"CCCCC1C(=O)N(c2ccccc2)N(c2ccccc2)C1=O [Phenylbutazone, reference compound]",% Increment of Edema,"[4]; 100 mg/kg P.O., 0.5 hr",11.8 ± 6.26%
same,% Increment of Edema,"[4]; 100 mg/kg P.O., 1.5 hr",20.9 ± 6.88%
same,% Increment of Edema,"[4]; 100 mg/kg P.O., 2.5 hr",21.9 ± 9.22%
same,% Increment of Edema,"[4]; 100 mg/kg P.O., 3.5 hr",36.2 ± 14.45%
"Cc1occc(=O)c1O [Maltol, maltol]",% Inhibition of Malondialdehyde (MDA) Generation,[2]; [9],5.2 ± 2.6%
same,% Inhibition of Malondialdehyde (MDA) Generation,[2]; [6],99.4 ± 0.3%
same,% Inhibition of Malondialdehyde (MDA) Generation,[2]; [7],94.8 ± 2.6%
same,% Inhibition of Malondialdehyde (MDA) Generation,[2]; [8],13.4 ± 6.7%
